Some test systems named below: SNB-19 CNS; BT-549 breast; NCI-H522 lung; OVCAR-4 ovarian; NCI/ADR-RES ovarian; IGROV1 ovarian; CAKI-1 renal; SK-OV-3 ovarian; MDA-MB-435; RPMI-8226 leukemia.
Assay in all cases: NCI anticancer screen, dose series, 48 h

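Protocol summary: plate cells (96-well), add compound at 5 concentrations, incubate 48 h, interpolate endpoints linearly. GI50 = concentration required for 50% inhibition of growth. TGI: total growth inhibition.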

For the molecule `COc1cc2cc(Oc3ccc(NC(=O)Nc4ccccc4)cc3)c(C)nc2cc1OCCN1CCCCC1`, the GI50 with SNB-19 CNS is 5.77 µM; in the experiment with BT-549 breast, 5.63 µM; with NCI-H522 lung, 6.22 µM; in the experiment with OVCAR-4 ovarian it was 6.96 µM; with NCI/ADR-RES ovarian it was 6.54 µM; in the experiment with IGROV1 ovarian it was 5.68 µM. The GI50 is 4.94 µM in the experiment with CAKI-1 renal, 7.8 µM in the experiment on SK-OV-3 ovarian, 5.55 µM in the experiment with MDA-MB-435 and 3.52 µM with RPMI-8226 leukemia. The TGI with SNB-19 CNS turned out to be 11 µM; in the experiment with BT-549 breast, 11.2 µM; in the experiment with NCI-H522 lung, 13 µM; in the experiment with OVCAR-4 ovarian, 18.2 µM; in the experiment with NCI/ADR-RES ovarian, 14.5 µM; in the experiment with IGROV1 ovarian, 11 µM. For the same molecule, the TGI was determined as 10 µM in the experiment on CAKI-1 renal, 16.6 µM in the experiment with SK-OV-3 ovarian, 10.1 µM in the experiment on MDA-MB-435 and 10.8 µM in the experiment on RPMI-8226 leukemia.
As to `O=S(=O)(NC(=S)Nc1ccccc1)c1ccc(N2N=C3c4ccccc4CC3C2c2cccs2)cc1` (stereo not given), the GI50 with SNB-19 CNS is 33.8 µM; in the experiment with BT-549 breast, 24.6 µM; in the experiment on NCI-H522 lung it was 32.8 µM; with OVCAR-4 ovarian, 69.8 µM; in the experiment with NCI/ADR-RES ovarian, 19.3 µM; in the experiment on IGROV1 ovarian, 65.3 µM. The GI50 in the experiment with CAKI-1 renal was 18.5 µM; with SK-OV-3 ovarian, 49.5 µM; in the experiment on MDA-MB-435, 19.4 µM; with RPMI-8226 leukemia, 30.3 µM. Moreover, the TGI is above 100 µM in the experiment with SNB-19 CNS; 66.2 µM in the experiment with BT-549 breast; above 100 µM in the experiment on NCI-H522 lung; above 100 µM in the experiment on OVCAR-4 ovarian; 44.5 µM in the experiment with NCI/ADR-RES ovarian; above 100 µM with IGROV1 ovarian. Besides, the TGI with CAKI-1 renal was 43.8 µM; with SK-OV-3 ovarian, above 100 µM; in the experiment with MDA-MB-435 it was 45.6 µM; in the experiment with RPMI-8226 leukemia, 97.6 µM.
With `Cc1ccc(S(=O)(=O)Oc2ccc3c4c(c(=O)oc3c2)CCCCC4)cc1`, the GI50 with SNB-19 CNS was above 100 µM; in the experiment on BT-549 breast, 7.1 µM; in the experiment with NCI-H522 lung it was above 100 µM; in the experiment on OVCAR-4 ovarian it was 7.11 µM; in the experiment with NCI/ADR-RES ovarian it was 6.76 µM; with IGROV1 ovarian, above 100 µM. Moreover, the GI50 with CAKI-1 renal is above 100 µM; in the experiment with SK-OV-3 ovarian, above 100 µM; in the experiment with MDA-MB-435, above 100 µM; with RPMI-8226 leukemia, 4.55 µM. Also, the TGI in the experiment with SNB-19 CNS, in the experiment with BT-549 breast, in the experiment with NCI-H522 lung, in the experiment with OVCAR-4 ovarian, in the experiment with NCI/ADR-RES ovarian and with IGROV1 ovarian was above 100 µM in each case. Further, the TGI in the experiment with CAKI-1 renal, with SK-OV-3 ovarian, with MDA-MB-435 and in the experiment on RPMI-8226 leukemia was above 100 µM in each case.
On to `COc1ccc(C2NCCc3c2[nH]c2ccccc32)cc1CN1CCN(c2ccc(F)cc2)CC1` (stereo not given), for which the GI50 was 3.54 µM in the experiment on SNB-19 CNS; 7.55 µM in the experiment with BT-549 breast; 1.93 µM with NCI-H522 lung; 2.28 µM with OVCAR-4 ovarian; 2.27 µM with NCI/ADR-RES ovarian; 2.5 µM in the experiment with IGROV1 ovarian. Besides, the GI50 is 1.57 µM with CAKI-1 renal, 2.53 µM in the experiment on SK-OV-3 ovarian, 1.66 µM with MDA-MB-435 and 2.47 µM in the experiment with RPMI-8226 leukemia. Moreover, the TGI turned out to be 13 µM in the experiment on SNB-19 CNS; 20 µM in the experiment with BT-549 breast; 3.73 µM in the experiment with NCI-H522 lung; 7.22 µM with OVCAR-4 ovarian; 5.89 µM with NCI/ADR-RES ovarian; 6.29 µM with IGROV1 ovarian. In addition, the TGI is 3.31 µM in the experiment with CAKI-1 renal, 6.01 µM in the experiment with SK-OV-3 ovarian, 3.06 µM in the experiment with MDA-MB-435 and 5.65 µM with RPMI-8226 leukemia.
For the molecule `COc1cc2c3c(n(CCN)c(=O)c2cc1OC)-c1cc2c(cc1C3=O)OCO2`, the GI50 with SNB-19 CNS is 1.5 µM; in the experiment on BT-549 breast it was 0.959 µM; in the experiment with NCI-H522 lung it was 0.771 µM; in the experiment on OVCAR-4 ovarian, 1.43 µM; in the experiment on NCI/ADR-RES ovarian it was 0.152 µM; with IGROV1 ovarian it was 1.53 µM. Also, the GI50 in the experiment with CAKI-1 renal is below 0.0145 µM; with SK-OV-3 ovarian it was 2.57 µM; in the experiment on MDA-MB-435, 1.04 µM; in the experiment on RPMI-8226 leukemia, below 0.0159 µM. Also, the TGI with SNB-19 CNS is above 100 µM; in the experiment with BT-549 breast it was 3.01 µM; in the experiment on NCI-H522 lung, 6.57 µM; in the experiment on OVCAR-4 ovarian, 3.02 µM; in the experiment with NCI/ADR-RES ovarian it was 0.808 µM; with IGROV1 ovarian, 4.74 µM. The TGI is 0.786 µM in the experiment with CAKI-1 renal, above 100 µM in the experiment on SK-OV-3 ovarian, 2.78 µM in the experiment on MDA-MB-435 and 0.303 µM with RPMI-8226 leukemia.
Regarding `Nc1nc2ccc([C@@H]3Nc4ccc5[nH]ncc5c4[C@H]4[C@H]5CCC(C5)[C@H]43)cc2s1`, the GI50 in the experiment with SNB-19 CNS is 1.3 µM; in the experiment on BT-549 breast it was 1.25 µM; with NCI-H522 lung it was 1.38 µM; in the experiment with OVCAR-4 ovarian, 2.2 µM; in the experiment on NCI/ADR-RES ovarian it was 0.966 µM; in the experiment on IGROV1 ovarian, 1 µM. The GI50 was 0.791 µM with CAKI-1 renal, 1.73 µM in the experiment with SK-OV-3 ovarian, 0.293 µM with MDA-MB-435 and 1.39 µM in the experiment on RPMI-8226 leukemia. Moreover, the TGI in the experiment with SNB-19 CNS was found to be 11 µM; in the experiment with BT-549 breast, 5.25 µM; in the experiment with NCI-H522 lung it was 3.4 µM; in the experiment on OVCAR-4 ovarian it was 6.05 µM; with NCI/ADR-RES ovarian it was 4 µM; in the experiment with IGROV1 ovarian, 9.84 µM. The TGI with CAKI-1 renal was found to be 3.34 µM; with SK-OV-3 ovarian, 3.63 µM; with MDA-MB-435 it was 1.03 µM; in the experiment with RPMI-8226 leukemia it was 5.3 µM.
Consider `CN(C)CCNC(=O)c1cccc2cc3ccccc3nc12`, for which the GI50 in the experiment on SNB-19 CNS is 2.21 µM; in the experiment with BT-549 breast, 2.41 µM; in the experiment with NCI-H522 lung it was 1.32 µM; in the experiment on OVCAR-4 ovarian, 2.11 µM; in the experiment with NCI/ADR-RES ovarian it was 1.55 µM; in the experiment on IGROV1 ovarian it was 1.47 µM. The GI50 with CAKI-1 renal was 0.62 µM; in the experiment with SK-OV-3 ovarian, 1.03 µM; in the experiment with MDA-MB-435, 1.86 µM; in the experiment on RPMI-8226 leukemia, 1.89 µM. The TGI in the experiment with SNB-19 CNS was above 21.6 µM; in the experiment with BT-549 breast it was 10.8 µM; with NCI-H522 lung, 3.12 µM; in the experiment with OVCAR-4 ovarian it was 4.99 µM; in the experiment on NCI/ADR-RES ovarian, 5.83 µM; in the experiment with IGROV1 ovarian, above 22 µM. The TGI is 3.14 µM in the experiment on CAKI-1 renal, 11 µM with SK-OV-3 ovarian, 6.67 µM with MDA-MB-435 and above 25.2 µM in the experiment with RPMI-8226 leukemia.
Turning to `O=C1C(Cl)=C(Nc2ccc3cn[nH]c3c2)C(=O)c2ccccc21`, the GI50 in the experiment with SNB-19 CNS was 1.66 µM; in the experiment with BT-549 breast, 1.5 µM; in the experiment on NCI-H522 lung it was 1.55 µM; with OVCAR-4 ovarian it was 1.31 µM; in the experiment with NCI/ADR-RES ovarian, 1.62 µM; in the experiment with IGROV1 ovarian it was 0.198 µM. The GI50 in the experiment on CAKI-1 renal is 1.47 µM; with SK-OV-3 ovarian, 12 µM; in the experiment with MDA-MB-435 it was 1.51 µM; in the experiment with RPMI-8226 leukemia, 0.31 µM. In addition, the TGI turned out to be 3.33 µM in the experiment with SNB-19 CNS; 2.82 µM with BT-549 breast; 2.94 µM with NCI-H522 lung; 2.58 µM in the experiment with OVCAR-4 ovarian; 3.42 µM with NCI/ADR-RES ovarian; 2.02 µM in the experiment on IGROV1 ovarian. Besides, the TGI with CAKI-1 renal amounted to 2.78 µM; in the experiment with SK-OV-3 ovarian, 24.3 µM; in the experiment on MDA-MB-435, 2.83 µM; in the experiment on RPMI-8226 leukemia, 2.43 µM.
In the case of `O=C(O)CCC1COc2ccccc2O1` (stereo not given), the TGI in the experiment on SNB-19 CNS, in the experiment with BT-549 breast, with NCI-H522 lung, with OVCAR-4 ovarian, in the experiment on NCI/ADR-RES ovarian and in the experiment with IGROV1 ovarian was above 10 µM throughout. Further, the TGI in the experiment with CAKI-1 renal, in the experiment with SK-OV-3 ovarian, in the experiment with MDA-MB-435 and in the experiment with RPMI-8226 leukemia was above 10 µM in each case.
For the molecule `NCCNCC(O)CO` (stereo not given), the TGI in the experiment on SNB-19 CNS, in the experiment with BT-549 breast, in the experiment on NCI-H522 lung, with OVCAR-4 ovarian, with NCI/ADR-RES ovarian and with IGROV1 ovarian was above 100 µM in each case. The TGI in the experiment with CAKI-1 renal, with SK-OV-3 ovarian, with MDA-MB-435 and in the experiment with RPMI-8226 leukemia was above 100 µM in each case.
For the molecule `O=C(Oc1ccc([N+](=O)[O-])cc1)N1CCN(Cc2cccc(Oc3ccccc3)c2)CC1`, the GI50 in the experiment with SNB-19 CNS is above 100 µM; in the experiment on BT-549 breast, 52 µM; with NCI-H522 lung, above 50.9 µM; in the experiment on OVCAR-4 ovarian it was above 44.8 µM; in the experiment with NCI/ADR-RES ovarian, above 100 µM; with IGROV1 ovarian, above 100 µM. Besides, the GI50 is above 73.6 µM with CAKI-1 renal, above 100 µM in the experiment on SK-OV-3 ovarian, above 100 µM with MDA-MB-435 and 13.1 µM in the experiment with RPMI-8226 leukemia. The TGI in the experiment with SNB-19 CNS, with BT-549 breast, in the experiment on NCI-H522 lung, in the experiment on OVCAR-4 ovarian, with NCI/ADR-RES ovarian and with IGROV1 ovarian was above 100 µM in each case. Also, the TGI in the experiment on CAKI-1 renal, in the experiment on SK-OV-3 ovarian, in the experiment on MDA-MB-435 and in the experiment on RPMI-8226 leukemia was above 100 µM in each case.
As to `Nc1nc2c(c3ncccc13)C(c1cccc(Cl)c1)Cc1ncccc1-2` (stereo not given), the GI50 in the experiment on SNB-19 CNS is 2.5 µM; with BT-549 breast it was 2.28 µM; in the experiment with NCI-H522 lung it was 0.417 µM; in the experiment on OVCAR-4 ovarian it was 5.14 µM; in the experiment on NCI/ADR-RES ovarian it was 0.959 µM; in the experiment with IGROV1 ovarian it was 5.36 µM. The GI50 in the experiment with CAKI-1 renal is 3.04 µM; with SK-OV-3 ovarian, 2.69 µM; with MDA-MB-435 it was 0.29 µM; in the experiment on RPMI-8226 leukemia, 4.19 µM. In addition, the TGI with SNB-19 CNS was 17.7 µM; in the experiment with BT-549 breast, 13.3 µM; in the experiment with NCI-H522 lung, 2.82 µM; in the experiment on OVCAR-4 ovarian, 40.5 µM; with NCI/ADR-RES ovarian it was 7.5 µM; in the experiment with IGROV1 ovarian, above 100 µM. Besides, the TGI with CAKI-1 renal was 51.8 µM; in the experiment with SK-OV-3 ovarian, 23.2 µM; with MDA-MB-435, 1.17 µM; in the experiment on RPMI-8226 leukemia, 41.1 µM.
